# Assay results taken from patent publication US20060183677A1, “Novel exendin agonist formulations and methods of administration thereof” (priority 2002, published 2006).
# Experiments:
# [1] = test system: Sprague-Dawley rats; assay: Insulinotropic action during intravenous glucose challenge in rats (Example 5); assay type: in vivo; details: 30 pmol/kg/min i.v.
# [2] = test system: humans; details: acute treatment; cited from earlier work
# [3] = test system: diabetic db/db mice; assay: Glucose lowering in diabetic db/db mice (dose response); assay type: in vivo
# Experimental: C57BLKS/J-m-db/db mice, at least 3 months of age were utilized for the study. The mice were obtained from The Jackson Laboratory and allowed to acclimate for at least one week before use. Mice were housed in groups of ten at 22° C.±1° C. with a 12:12 light:dark cycle, with lights on at 6 a.m. All animals were deprived of food for 2 hours before taking baseline blood samples. Approximately 70 μl of blood was drawn from each mouse via eye puncture, after a light anesthesia with metophane. […] Blood samples were drawn again, using the same procedure, after exactly one hour from the injections, and plasma glucose concentrations were measured. For each animal, the % change in plasma value, from baseline value, was calculated and a dose dependent relationship was evaluated using Graphpad Prizm™ software.
substance,measurement,setting,value
GLP-1[7-36]NH2,60-min glucose AUC,[1],1096 ± 68 mM·min
same,plasma glucose after glucose injection,[1]; D-glucose […] i.v.,23.7 mM
same,increase of 60-min insulin AUC versus saline-treated rats,[1]; n.s. versus saline,20%
same,acute effect on insulin sensitivity,[2],appears not to immediately alter insulin sensitivity
same,Glucose-lowering ED50,[3],20.6 µg
